The term EC50 denotes the concentration giving half of the maximal effect.

Structures are written as SMILES. Where two headings read alike, the source gives them in different places.

For one assay, the target named is Lck enzyme (Homo sapiens (Human), UniProt P06239). The assay is described as follows: Lck enzyme activity (IMAP fluorescence polarization assay). As to conditions: read-out: EC50 Lck activity values; IMAP, 60 min pre-incubation, 6 μM ATP; bin bound in μM. A general note: In fluorescence polarisation assays a small probe gives low polarisation when free and higher when bound to something large.

A further assay has as its target Lyn enzyme (Homo sapiens (Human), UniProt P07948). In words: Lyn enzyme activity (IMAP fluorescence polarization assay).
The target of another assay is Btk enzyme (His-Btk) (Homo sapiens (Human), UniProt Q06187). In words: Btk enzyme activity (IMAP fluorescence polarization assay).
In another assay the target is FynT enzyme (Homo sapiens (Human), UniProt P06241). The assay is described as follows: FynT enzyme activity (IMAP fluorescence polarization assay). As to conditions: 60 min pre-incubation, 0.2 μM ATP. The format is biochemical. An outline of the steps: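 Human FynT pre-incubated with compounds 60 min at room temperature, then reacted 2 h at room temperature with fluorescein-labelled p34cdc2 peptide (100 nM final). Stopped with IMAP binding solution; fluorescence polarization read after 60 min. Activity as % of ±ATP control difference; EC50 by curve fitting.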

In the next assay the target is Src enzyme (Homo sapiens (Human), UniProt P12931). In words: Src enzyme activity (IMAP fluorescence polarization assay). As to conditions: read-out: EC50 Src activity values; IMAP, 60 min pre-incubation, 4 μM ATP.
Where [1] appears, read: read-out: EC50 Lyn activity values, 60 min pre-incubation, 2 μM ATP, bin bound in μM.
The mark [2] stands for this setting: IMAP, 60 min pre-incubation, 5 μM ATP, bin bound in μM.

Sequence of Btk enzyme (His-Btk) (Q06187 whole entry): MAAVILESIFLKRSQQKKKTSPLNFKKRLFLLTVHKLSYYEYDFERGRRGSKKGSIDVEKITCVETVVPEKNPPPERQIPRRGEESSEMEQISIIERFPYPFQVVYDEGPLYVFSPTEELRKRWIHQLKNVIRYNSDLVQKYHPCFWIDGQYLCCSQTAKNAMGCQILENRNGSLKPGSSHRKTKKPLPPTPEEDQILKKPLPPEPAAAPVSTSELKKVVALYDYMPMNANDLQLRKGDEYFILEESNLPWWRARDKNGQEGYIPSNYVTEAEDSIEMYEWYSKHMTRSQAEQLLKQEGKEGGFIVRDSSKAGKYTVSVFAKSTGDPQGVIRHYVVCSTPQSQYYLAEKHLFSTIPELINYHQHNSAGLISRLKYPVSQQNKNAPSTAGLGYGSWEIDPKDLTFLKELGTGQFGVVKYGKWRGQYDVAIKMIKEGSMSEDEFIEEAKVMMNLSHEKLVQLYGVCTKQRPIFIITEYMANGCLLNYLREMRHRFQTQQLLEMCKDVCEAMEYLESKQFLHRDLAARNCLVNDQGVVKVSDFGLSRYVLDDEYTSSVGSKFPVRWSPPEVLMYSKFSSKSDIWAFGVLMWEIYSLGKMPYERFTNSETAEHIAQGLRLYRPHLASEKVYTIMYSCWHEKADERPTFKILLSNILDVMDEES
Sequence of Lck enzyme (P06239 whole entry): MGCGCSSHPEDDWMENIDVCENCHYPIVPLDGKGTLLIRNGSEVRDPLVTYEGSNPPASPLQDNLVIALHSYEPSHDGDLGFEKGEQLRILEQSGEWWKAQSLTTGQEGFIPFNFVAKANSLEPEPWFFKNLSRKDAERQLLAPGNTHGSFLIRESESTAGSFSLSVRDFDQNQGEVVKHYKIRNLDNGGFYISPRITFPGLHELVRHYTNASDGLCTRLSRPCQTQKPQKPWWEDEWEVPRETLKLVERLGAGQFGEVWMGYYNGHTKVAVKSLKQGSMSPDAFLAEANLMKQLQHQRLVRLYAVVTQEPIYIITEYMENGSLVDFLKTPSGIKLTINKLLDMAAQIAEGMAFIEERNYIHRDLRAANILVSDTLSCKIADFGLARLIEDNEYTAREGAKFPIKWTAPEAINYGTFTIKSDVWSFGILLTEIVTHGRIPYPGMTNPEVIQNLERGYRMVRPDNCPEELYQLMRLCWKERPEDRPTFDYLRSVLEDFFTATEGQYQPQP
Sequence of Src enzyme (P12931 whole entry, looked up): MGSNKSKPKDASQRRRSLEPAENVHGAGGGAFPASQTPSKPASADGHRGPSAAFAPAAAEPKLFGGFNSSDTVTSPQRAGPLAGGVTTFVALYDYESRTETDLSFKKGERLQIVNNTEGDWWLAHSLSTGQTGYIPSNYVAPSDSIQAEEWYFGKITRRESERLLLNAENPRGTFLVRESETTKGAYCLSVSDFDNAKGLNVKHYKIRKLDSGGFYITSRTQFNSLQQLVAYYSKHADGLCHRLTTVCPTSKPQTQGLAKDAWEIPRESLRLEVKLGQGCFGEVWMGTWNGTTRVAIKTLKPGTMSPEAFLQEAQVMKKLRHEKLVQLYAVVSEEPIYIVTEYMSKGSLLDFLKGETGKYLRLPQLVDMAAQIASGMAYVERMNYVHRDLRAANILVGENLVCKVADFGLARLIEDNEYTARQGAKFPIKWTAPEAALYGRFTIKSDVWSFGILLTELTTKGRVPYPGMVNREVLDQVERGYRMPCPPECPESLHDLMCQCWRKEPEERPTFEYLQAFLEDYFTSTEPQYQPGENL
Sequence of FynT enzyme (P06241 other isoform, or with tags, fused parts or gaps): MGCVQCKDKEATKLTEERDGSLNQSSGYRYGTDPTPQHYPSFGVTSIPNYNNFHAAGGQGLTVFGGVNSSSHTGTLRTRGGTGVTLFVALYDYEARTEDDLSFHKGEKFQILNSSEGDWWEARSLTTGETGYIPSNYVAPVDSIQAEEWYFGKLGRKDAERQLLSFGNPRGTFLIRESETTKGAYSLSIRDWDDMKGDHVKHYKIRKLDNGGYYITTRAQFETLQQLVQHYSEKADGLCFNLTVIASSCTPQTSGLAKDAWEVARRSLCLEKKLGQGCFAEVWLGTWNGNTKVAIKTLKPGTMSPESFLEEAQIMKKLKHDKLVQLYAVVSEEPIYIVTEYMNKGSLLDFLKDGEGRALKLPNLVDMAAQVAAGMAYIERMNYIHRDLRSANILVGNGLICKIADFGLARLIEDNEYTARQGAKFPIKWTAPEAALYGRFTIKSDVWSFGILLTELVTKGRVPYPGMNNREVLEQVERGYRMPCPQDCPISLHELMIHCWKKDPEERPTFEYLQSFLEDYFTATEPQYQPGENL
Sequence of Lyn enzyme (P07948 whole entry): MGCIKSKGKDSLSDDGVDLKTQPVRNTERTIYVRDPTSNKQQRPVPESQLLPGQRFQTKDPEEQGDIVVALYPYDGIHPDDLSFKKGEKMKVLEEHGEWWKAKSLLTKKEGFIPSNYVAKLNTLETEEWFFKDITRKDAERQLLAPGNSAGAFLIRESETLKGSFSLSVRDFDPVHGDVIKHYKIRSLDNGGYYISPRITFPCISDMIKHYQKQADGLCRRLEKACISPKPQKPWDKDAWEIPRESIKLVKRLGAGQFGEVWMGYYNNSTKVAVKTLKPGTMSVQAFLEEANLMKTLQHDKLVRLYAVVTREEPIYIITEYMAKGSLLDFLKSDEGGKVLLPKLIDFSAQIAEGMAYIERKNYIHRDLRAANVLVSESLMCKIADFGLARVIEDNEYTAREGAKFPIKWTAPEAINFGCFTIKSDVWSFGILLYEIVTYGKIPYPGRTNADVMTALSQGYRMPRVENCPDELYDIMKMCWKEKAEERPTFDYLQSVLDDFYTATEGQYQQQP
Method for Btk enzyme (His-Btk): Inhibition of kinase activity can be measured using the Immobilized Metal Assay for Phosphochemicals (IMAP) assay. IMAP is a homogeneous fluorescence polarization (FP) assay based on affinity capture of phosphorylated peptide substrates. IMAP uses fluorescein-labeled peptide substrates that, upon phosphorylation by a protein kinase, bind to so-called IMAP nanoparticles, which are derivatized with trivalent metal complexes.
Final peptide substrate concentration in assay is 50 nM.

For `COC/C=C/C(=O)N1CCCC[C@H]1c1nc(-c2ccc(C(=O)Nc3ccncn3)cc2)c2c(N)nccn12` [Example 86, (S,E)-4-(8-amino-3-(1-(4-methoxybut-2-enoyl)piperidin-2-yl)imidazo[1,5-a]pyrazin-1-yl)-N-(pyrimidin-4-yl)benzamide], the 50% effective concentration (EC50) at Lck enzyme was no less than 1 µM; on Lyn enzyme (setting [1]), no less than 1 µM; at Btk enzyme (His-Btk) it was 0.1 to 1 µM; on FynT enzyme it was no less than 1000 nM; on Src enzyme, no less than 1000 nM. Also, the “EC50 Btk activity values” at Btk enzyme (His-Btk) (setting [2]) was less than 1 µM.

In the case of `CCCc1ccnc(NC(=O)c2ccc(-c3nc([C@@H]4CCCN4C(=O)/C=C/COC)n4ccnc(N)c34)c(C)c2)c1` [Example 87, 4-(8-amino-3-((S)-1-((E)-4-methoxybut-2-enoyl)pyrrolidin-2-yl)imidazo[1,5-a]pyrazin-1-yl)-3-methyl-N-(4-propylpyridin-2-yl)benzamide], the concentration giving a half-maximal response (EC50) is no less than 1 µM on Lck enzyme; no less than 1 µM on Lyn enzyme (setting [1]); 0.1 to 1 µM on Btk enzyme (His-Btk); no less than 1000 nM at FynT enzyme; no less than 1000 nM at Src enzyme. The “EC50 Btk activity values” on Btk enzyme (His-Btk) (setting [2]) is less than 1 µM.

Consider `COC/C=C/C(=O)N1CCCC[C@H]1c1nc(-c2ccc(C(=O)Nc3nccc(C)n3)cc2)c2c(N)nccn12` [Example 88, (S,E)-4-(8-amino-3-(1-(4-methoxybut-2-enoyl)piperidin-2-yl)imidazo[1,5-a]pyrazin-1-yl)-N-(4-methylpyrimidin-2-yl)benzamide], for which the concentration giving a half-maximal response (EC50) was no less than 1 µM on Lck enzyme; no less than 1 µM at Lyn enzyme (setting [1]); 0.1 to 1 µM on Btk enzyme (His-Btk); no less than 1000 nM on FynT enzyme; no less than 1000 nM at Src enzyme. For the same molecule, the “EC50 Btk activity values” at Btk enzyme (His-Btk) (setting [2]) was less than 1 µM.

In the case of `CC#CC(=O)N1CCCC[C@H]1c1nc(-c2ccc(C(=O)Nc3nccc(C)n3)cc2)c2c(N)nccn12` [Example 89, (S)-4-(8-amino-3-(1-but-2-ynoylpiperidin-2-yl)imidazo[1,5-a]pyrazin-1-yl)-N-(4-methylpyrimidin-2-yl)benzamide], the half-maximal effective concentration (EC50) on Lck enzyme is no less than 1 µM; at Lyn enzyme (EC50 Lyn activity values, 60 min pre-incubation, 2 μM ATP, bin bound in μM), no less than 1 µM; on Btk enzyme (His-Btk) it was 0.01 to 0.1 µM; on FynT enzyme, no less than 1000 nM; on Src enzyme, no less than 1000 nM. Further, on Btk enzyme (His-Btk) (IMAP, 60 min pre-incubation, 5 μM ATP, bin bound in nM), the “EC50 Btk activity values” is less than 0.1 µM.

`Nc1nccn2c([C@@H]3CCCCN3C(=O)c3ccnc(Cl)n3)nc(-c3ccc(C(=O)Nc4ncccn4)cc3)c12` [Example 90, (S)-4-(8-amino-3-(1-(2-chloropyrimidine-4-carbonyl)piperidin-2-yl)imidazo[1,5-a]pyrazin-1-yl)-N-(pyrimidin-2-yl)benzamide]: the EC50 was no less than 1 µM on Lck enzyme; no less than 1 µM at Lyn enzyme (setting [1]); 0.1 to 1 µM on Btk enzyme (His-Btk); no less than 1000 nM at FynT enzyme; no less than 1000 nM on Src enzyme. In addition, the “EC50 Btk activity values” on Btk enzyme (His-Btk) (setting [2]) was less than 1 µM.

Consider `C=C(C)C(=O)N1CCC[C@H]1c1nc(-c2ccc(C(=O)Nc3ccccn3)cc2)c2c(N)nccn12` [Example 91, (S)-4-(8-amino-3-(1-methacryloylpyrrolidin-2-yl)imidazo[1,5-a]pyrazin-1-yl)-N-(pyridin-2-yl)benzamide], for which the concentration for a half-maximal effect (EC50) is no less than 1 µM on Lck enzyme; no less than 1 µM at Lyn enzyme (setting [1]); no less than 1 µM on Btk enzyme (His-Btk) (read-out: EC50 Btk activity values, IMAP, 60 min pre-incubation, 5 μM ATP, bin bound in μM); no less than 1000 nM on FynT enzyme; no less than 1000 nM on Src enzyme.

Consider `C=C(C(=O)N1CCC[C@H]1c1nc(-c2ccc(C(=O)Nc3ccccn3)cc2)c2c(N)nccn12)C(F)(F)F` [Example 92, (S)-4-(8-amino-3-(1-(2-(trifluoromethyl)acryloyl)pyrrolidin-2-yl)imidazo[1,5-a]pyrazin-1-yl)-N-(pyridin-2-yl)benzamide], for which the concentration for a half-maximal effect (EC50) at Lck enzyme is no less than 1 µM; at Lyn enzyme (setting [1]), no less than 1 µM; at Btk enzyme (His-Btk), 0.1 to 1 µM; on FynT enzyme, no less than 1000 nM; at Src enzyme, no less than 1000 nM. In addition, the “EC50 Btk activity values” on Btk enzyme (His-Btk) (setting [2]) was less than 1 µM.

For the origin of these results see US9758524B2, “4-imidazopyridazin-1-yl-benzamides as Btk inhibitors” (Merck Sharp & Dohme B.V., priority 2011, dated 2017).
